Tested on: NCI-H23 complex spheroids with HUVEC/MSC, viability
Experiment: Anticancer human tumor NCI-H23 cell line growth inhibition [RAS];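 further: spheroids exposed to compound for 7 days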;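 on viability, T/C: 100% = DMSO vehicle control viability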
Conditions: for IC50: curve of first compound; for viability, T/C: stronger effect = lower value; active means viability on the fitted dose curve at most 10% of control; inactive means the rest
Summary of the method: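 Agents were tested in combination matrices in half-log decrements from a top concentration at or near clinical Cmax (10 microM if undetermined). Targets were multi-cell spheroids of tumour lines plus HUVEC and MSC stromal cells.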

CC1(O)CCCC1n1c(=O)c(C(F)F)cc2cnc(NC3CCN(S(C)(=O)=O)CC3)nc21 (configuration not stated) + C=CC(=O)N1CCN(c2nc(OCC3CCCN3C)nc3c(F)c(-c4nc(N)cc(C)c4C(F)(F)F)c(Cl)cc23)C(C)C1
< 31.6 nM: IC50 (second compound 0.00316 µM) | IC50 (second compound 0.01 µM) | IC50 (second compound 0.0316 µM) | IC50 (second compound 0.1 µM) | IC50 (second compound 0.316 µM) | IC50 (second compound 1 µM)
inactive: viability, T/C (second compound 0.00316 µM, first compound 0.0316 µM) 46.8% | viability, T/C (second compound 0.00316 µM, first compound 0.1 µM) 41.8% | viability, T/C (second compound 0.00316 µM, first compound 0.316 µM) 30.8% | viability, T/C (second compound 0.00316 µM, first compound 1 µM) 29.7% | viability, T/C (second compound 0.00316 µM, first compound 3.16 µM) 28.1% | viability, T/C (second compound 0.00316 µM, first compound 10 µM) 6.28% | viability, T/C (second compound 0.01 µM, first compound 0.0316 µM) 44.6% | viability, T/C (second compound 0.01 µM, first compound 0.1 µM) 32.1% | viability, T/C (second compound 0.01 µM, first compound 0.316 µM) 24.9% | viability, T/C (second compound 0.01 µM, first compound 1 µM) 27.3% | viability, T/C (second compound 0.01 µM, first compound 3.16 µM) 25.9% | viability, T/C (second compound 0.01 µM, first compound 10 µM) 4.38% | viability, T/C (second compound 0.0316 µM, first compound 0.0316 µM) 36.1% | viability, T/C (second compound 0.0316 µM, first compound 0.1 µM) 26.5% | viability, T/C (second compound 0.0316 µM, first compound 0.316 µM) 23.1% | viability, T/C (second compound 0.0316 µM, first compound 1 µM) 25.3% | viability, T/C (second compound 0.0316 µM, first compound 3.16 µM) 26.5% | viability, T/C (second compound 0.0316 µM, first compound 10 µM) 3.8% | viability, T/C (second compound 0.1 µM, first compound 0.0316 µM) 34.6% | viability, T/C (second compound 0.1 µM, first compound 0.1 µM) 28.7% | viability, T/C (second compound 0.1 µM, first compound 0.316 µM) 22.1% | viability, T/C (second compound 0.1 µM, first compound 1 µM) 22.6% | viability, T/C (second compound 0.1 µM, first compound 3.16 µM) 23.6% | viability, T/C (second compound 0.316 µM, first compound 0.0316 µM) 31.2% | viability, T/C (second compound 0.316 µM, first compound 0.1 µM) 23.1% | viability, T/C (second compound 0.316 µM, first compound 0.316 µM) 22.4% | viability, T/C (second compound 0.316 µM, first compound 1 µM) 20.3% | viability, T/C (second compound 0.316 µM, first compound 3.16 µM) 27.6% | viability, T/C (second compound 0.316 µM, first compound 10 µM) 3.96% | viability, T/C (second compound 1 µM, first compound 0.0316 µM) 27.1% | viability, T/C (second compound 1 µM, first compound 0.1 µM) 25.9% | viability, T/C (second compound 1 µM, first compound 0.316 µM) 21% | viability, T/C (second compound 1 µM, first compound 1 µM) 22% | viability, T/C (second compound 1 µM, first compound 3.16 µM) 23.5% | viability, T/C (second compound 1 µM, first compound 10 µM) 2.26%
active: viability, T/C (second compound 0.1 µM, first compound 10 µM) 4.58%

Source: PubChem BioAssay AID2060885 (Molecular Pharmacology Branch, DTP, NCI, 2025)
